The values below come from patent US11147792B2, “Inhibitors of microbially induced amyloid” (Axial Therapeutics, Inc, priority 2017, dated 2021).

Holding throughout (assay type): biochemical
One test has as its target T1, human α-synuclein (Homo sapiens, UniProt P37840).
T1 construct: made in house; host or cells: E. coli
Put plainly: In vitro Thioflavin T assay of α-synuclein aggregation. As to the method:
In Vitro Thioflavin T Assay to Determine the Effects of Compounds on α-Synuclein Aggregation.
The ammonium sulfate pellet was washed with an equal volume of 100 mM ammonium acetate in ethanol, pelleted via centrifugation, washed twice with ethanol, dried overnight, resuspended in 10 mM Tris pH 7.4, and passed through a 50 kDa cut-off column. The assay was conducted in 96-well black microplates with a single 2 mm bead in each well, 40 μM ThioflavinT, 1% DMSO, 50 μM α-synuclein, 100 mM sodium chloride, 9.3 mM potassium phosphate pH 7.3, 4.6 mM Tris pH 7.4 (added as the solvent for α-synuclein or independently for controls lacking α-synuclein), and compounds at 1 μM or 50 μM. […] Readings were performed hourly for up to 73 hours. The effect of compounds on α-synuclein aggregation in the assay was determined with data from 40 hours, following the plateau of the fluorescent signal in the untreated (no compound) control wells containing α-synuclein. Fluorescence values for each compound with α-synuclein were first adjusted by subtracting the average fluorescence of the compound in the absence of α-synuclein.

The target in test [1] is T2, α-synuclein seeded by E. coli CsgA (Homo sapiens, UniProt P37840).
T2 construct: made in house; host or cells: E. coli NEB 3016 slyD::kan (CsgA, pET11d); E. coli (α-synuclein)
Put plainly: In vitro Thioflavin T assay of CsgA-seeded α-synuclein aggregation. As to the method: In Vitro Thioflavin T Assay to Determine the Effects of Compounds on CsgA-Seeded α-Synuclein Aggregation.
To induce over-expression of CsgA, 0.5 mM IPTG was added to cultures with an optical density at 600 nm (OD600) of 0.8-1, and induced cells were cultured at 37° C. for 1 hour prior to harvest via centrifugation. […] Buffers with imidazole were freshly prepared prior to the protein purification. Purified CsgA was passed through a 30 kDa molecular weight cut-off filter and through a desalting column. All steps of the CsgA purification in the absence of guanidine hydrochloride were conducted in rapid succession with as little delay as possible. […] The ammonium sulfate pellet was washed with an equal volume of 100 mM ammonium acetate in ethanol, pelleted via centrifugation, washed twice with ethanol, dried overnight, resuspended in 10 mM Tris pH 7.4, and passed through a 50 kDa cut-off column. The assay was conducted in 96-well black microplates with a single glass 2 mm bead per well, 40 μM ThioflavinT, 1% DMSO, 2 μM CsgA, 50 μM α-synuclein, 100 mM sodium chloride, 9.3 mM potassium phosphate pH 7.3, and compounds at 50 μM. […] The effect of compounds on CsgA-seeded α-synuclein aggregation in the assay was determined with data from 40 hours, following the plateau of the fluorescent signal in the untreated (no compound) control wells containing CsgA and α-synuclein. Fluorescence values for each compound with CsgA and α-synuclein were first adjusted by subtracting the average fluorescence of the compound in the absence of CsgA and α-synuclein.

In another test the target is T3, E. coli CsgA (Escherichia coli, UniProt P28307).
T3 construct: made in house; host or cells: E. coli NEB 3016 slyD::kan, pET11d
T3 sequence (P28307 23-151): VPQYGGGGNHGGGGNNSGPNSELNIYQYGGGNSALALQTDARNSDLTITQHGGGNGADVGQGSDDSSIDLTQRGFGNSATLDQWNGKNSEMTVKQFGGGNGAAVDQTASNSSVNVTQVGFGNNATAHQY
In words: In vitro ThioflavinT assay of CsgA aggregation. The following applies: for Effect on CsgA aggregation (in words) / Inhibition of Aggregation CsgA (compound activity range): compounds at 20 μM; for inhibition at 20 µM / Inhibition of Aggregation CsgA (compound activity range): CsgA at 20 μM, ThT fluorescence at 18 hours; for Inhibition of Aggregation CsgA (compound activity range): 20 µM. As to the method: In Vitro ThioflavinT Assay to Determine Effects of Compounds on CsgA Aggregation.
To assess the effects of compounds on aggregation of E. coli CsgA, a cell-free assay was performed using purified CsgA and Thioflavin T. In the assay, histidine-tagged CsgA was over-expressed in E. coli NEB 3016 slyD::kan cells harboring a pET11d vector containing csgA with the sequence for 6 histidine residues added to the C-terminus and without the Sec signal (amino acid 1-22) sequence. To induce over-expression of CsgA, 0.5 mM isopropyl β-D-1-thiogalactopyranoside (“IPTG”) was added to cultures with an optical density at 600 nm (OD600) of 0.8-1, and induced cells were cultured at 37° C. for 1 hour prior to harvest via centrifugation. Cells were lysed under denaturing conditions with 8 M guanidine hydrochloride in 50 mM potassium phosphate buffer pH 7.3, and CsgA was purified via immobilized-metal affinity chromatography by batch purification with Nickel-NTA agarose and a combination of low pressure and gravity flow through a disposable polypropylene column, including washes under low pressure applied manually via application of a syringe plunger to the column with 50 mM potassium phosphate buffer pH 7.3 followed by 12.5 mM imidazole in 50 mM potassium phosphate buffer pH 7.3, and elution by gravity flow with 125 mM imidazole in 50 mM potassium phosphate buffer pH 7.3. Buffers with imidazole were freshly prepared prior to the protein purification. Purified CsgA was passed through a 30 kDa molecular weight cut-off filter and passed through a desalting column. All steps of the CsgA purification in the absence of guanidine hydrochloride were conducted in rapid succession with as little delay as possible. The assay was conducted in 96-well black microplates with 40 μM ThioflavinT, 1% DMSO, CsgA at 20 μM, and compounds at 20 μM. Plates were incubated at 25° C. in a Tecan Nano F200 plate reader with excitation at 438 nm using a 439 nm filter with a bandwidth of 8 nm, and emission at 495 nm with a 490 nm filter with a bandwidth of 10 nm. During the assay, plates were shaken initially for 5 seconds and subsequently for 3 seconds prior to fluorescent readings. Readings were performed every 20 minutes for up to 24 hours. The effect of compounds on CsgA aggregation in the assay was determined with data from 18 hours, following the plateau of the fluorescent signal in the untreated (no compound) control wells containing CsgA. Fluorescence values for each compound with CsgA were first adjusted by subtracting the average fluorescence of the compound in the absence of CsgA. These adjusted values were normalized by dividing them by the average fluorescence in the no-compound (i.e., untreated) control wells containing CsgA […], and the average normalized fluorescence with the compound was expressed as a percentage of the average fluorescence observed in untreated controls.

The mark [2] stands for this setting: read-out: Inhibition of Aggregation αSyn.
Setting [3] is: read-out: Inhibition of Aggregation αSyn (compound activity range).
[4] abbreviates: read-out: Inhibition of Aggregation CsgA, compounds at 20 μM.
Setting [5] is: compounds at 50 μM, 50 μM α-synuclein, ThT fluorescence at 40 hours, read-out: Inhibition of Aggregation αSyn.
Where [6] appears, read: compounds at 50 μM, 50 μM α-synuclein, ThT fluorescence at 40 hours, read-out: Inhibition of Aggregation αSyn (compound activity range).
Where [7] appears, read: compounds at 50 μM, 2 μM CsgA, 50 μM α-synuclein, ThT fluorescence at 40 hours, read-out: Inhibition of Aggregation CsgA-seeded αSyn.
The mark [8] stands for this setting: read-out: Inhibition of Aggregation CsgA (compound activity range), compounds at 20 μM.
Where [9] appears, read: compounds at 50 μM, 2 μM CsgA, 50 μM α-synuclein, ThT fluorescence at 40 hours, read-out: Inhibition of Aggregation CsgA-seeded αSyn (compound activity range).

Where two headings read alike, the source gives them in different places. A value given as a limit tells only on which side of the number the result lay.

By inhibition is commonly meant the relative decrease from the control value, in per cent.

Consider `C=CCc1ccc(O)c(OC)c1` [eugenol, 2-methoxy-4-(prop-2-en-1-yl)phenol], for which, at human α-synuclein (compounds at 50 μM), the “Effect on α-synuclein aggregation (in words)” value is listed as “without notable inhibition”. For the same molecule, the inhibition at 50 µM is -1% on human α-synuclein (setting [2]), -10 to 10% at human α-synuclein (setting [3]), 42% in test [1] (read-out: Inhibition of Aggregation CsgA-seeded αSyn) and 30 to 60% in test [1] (read-out: Inhibition of Aggregation CsgA-seeded αSyn (compound activity range)). For the same molecule, the “Effect on CsgA-seeded α-synuclein aggregation (in words)” value in test [1] (compounds at 50 μM) is recorded as “demonstrated inhibition”. The “Effect on CsgA aggregation (in words)” value on E. coli CsgA is “without notable inhibition”. Besides, the inhibition at 20 µM on E. coli CsgA (setting [4]) is -10%.
For `O=C(O)c1cc(O)c(O)c(O)c1` [gallic acid, 3,4,5-trihydroxybenzoic acid], the inhibition at 50 µM on human α-synuclein (setting [5]) is 99%; on human α-synuclein (setting [6]), over 60%; in test [1] (setting [7]) it was 63%. Moreover, the “Inhibition of Aggregation CsgA (compound activity range)” value at E. coli CsgA was “(++) to (+++)”. For the same molecule, the figures for the inhibition at 20 µM at E. coli CsgA (setting [8]) and at E. coli CsgA (setting [4]) were over 60% and 82%, respectively.
As to `COc1ccccc1O` [guaiacol, 2-methoxyphenol], the “Effect on α-synuclein aggregation (in words)” value on human α-synuclein (compounds at 50 μM) was “without notable inhibition”. The inhibition at 50 µM is -2% at human α-synuclein (setting [5]), -10 to 10% at human α-synuclein (setting [6]), 40% in test [1] (setting [7]) and 30 to 60% in test [1] (setting [9]). The “Effect on CsgA-seeded α-synuclein aggregation (in words)” value in test [1] (compounds at 50 μM) is given as “demonstrated inhibition”. The “Effect on CsgA aggregation (in words)” value at E. coli CsgA was “without notable inhibition”. Also, the inhibition at 20 µM on E. coli CsgA (setting [8]) was -10 to 10%; on E. coli CsgA (setting [4]), -5%.
Take `C/C=C/c1ccc(O)c(OC)c1` [isoeugenol, 2-methoxy-4-(prop-1-en-1-yl)phenol]: on human α-synuclein (compounds at 50 μM), the “Effect on α-synuclein aggregation (in words)” value is “without notable inhibition”. The inhibition at 50 µM on human α-synuclein (setting [5]) is 9%; at human α-synuclein (setting [6]) it was -10 to 10%; in test [1] (setting [7]), 35%; in test [1] (setting [9]), 30 to 60%. The “Effect on CsgA-seeded α-synuclein aggregation (in words)” value in test [1] (compounds at 50 μM) is “demonstrated inhibition”. On E. coli CsgA, the “Effect on CsgA aggregation (in words)” value is “without notable inhibition”. Also, the inhibition at 20 µM at E. coli CsgA (setting [8]) is -10 to 10%; at E. coli CsgA (setting [4]), -4%.
Take `CCCCCCCCCCCCOC(=O)c1cc(O)c(O)c(O)c1` [lauryl gallate, dodecyl 3,4,5-trihydroxybenzoate]: the inhibition at 50 µM on human α-synuclein (setting [5]) is 33%; on human α-synuclein (setting [6]), 30 to 60%; in test [1] (setting [7]), 24%; in test [1] (setting [9]) it was 10 to 30%. For the same molecule, the “Inhibition of Aggregation CsgA-seeded αSyn (compound activity range)” value in test [1] (compounds at 50 μM, 2 μM CsgA, 50 μM α-synuclein, ThT fluorescence at 40 hours) is “+%”. Besides, on E. coli CsgA, the “Effect on CsgA aggregation (in words)” value is reported as “did not appear to inhibit CsgA aggregation”. Moreover, the inhibition at 20 µM was -10 to 10% at E. coli CsgA (setting [8]) and 1% on E. coli CsgA (setting [4]).
As to `COc1cc(O)ccc1O` [methoxy-hydroquinone, 2-methoxybenzene-1,4-diol], the inhibition at 50 µM at human α-synuclein (setting [5]) is 100%; on human α-synuclein (setting [6]), over 60%; in test [1] (setting [7]), 80%. For the same molecule, the “Inhibition of Aggregation CsgA (compound activity range)” value on E. coli CsgA is given as “(++) to (+++)”. Further, the inhibition at 20 µM at E. coli CsgA (setting [8]) is 30 to 60%; at E. coli CsgA (setting [4]), 50%.
Turning to `O=c1c(O)c(-c2ccc(O)cc2O)oc2cc(O)cc(O)c12` [morin, 2-(2,4-dihydroxyphenyl)-3,5,7-trihydroxychromen-4-one], the inhibition at 50 µM is 88% on human α-synuclein (setting [5]), over 60% on human α-synuclein (setting [6]) and 70% in test [1] (setting [7]). Further, the inhibition at 20 µM at E. coli CsgA (setting [8]) was over 60%; on E. coli CsgA (setting [4]) it was 69%.
On to `O=C(CCc1ccc(O)cc1)c1c(O)cc(O)cc1O` [phloretin, 3-(4-hydroxyphenyl)-1-(2,4,6-trihydroxyphenyl)propan-1-one], for which the inhibition at 50 µM at human α-synuclein (setting [5]) was 46%; on human α-synuclein (setting [6]), 30 to 60%; in test [1] (setting [7]), 21%; in test [1] (setting [9]) it was 10 to 30%. Moreover, the inhibition at 20 µM is 10 to 30% at E. coli CsgA (setting [8]) and 18% at E. coli CsgA (setting [4]).
As to `Cc1ccc(C(C)C)c(O)c1` [thymol, 5-methyl-2-(propan-2-yl)phenol], the inhibition at 50 µM at human α-synuclein (setting [2]) was -21%; on human α-synuclein (setting [3]) it was under -10%; in test [1] (setting [7]), 9%; in test [1] (setting [9]), -10 to 10%. Further, in test [1] (compounds at 50 μM), the “Effect on CsgA-seeded α-synuclein aggregation (in words)” value is given as “little to no effect”. On E. coli CsgA, the “Effect on CsgA aggregation (in words)” value is listed as “little to no effect”. In addition, the inhibition at 20 µM is -10 to 10% on E. coli CsgA (setting [8]) and -4% at E. coli CsgA (setting [4]).
